Measured values as given in PubChem BioAssay (NCI).
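Assay format: 96-well plates, 48-hour exposure. TGI denotes the concentration required for complete inhibition of growth.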

Tests used:
Assay in all cases: NCI-60 cell line screen, 48 h
MDA-MB-435 = tested on: MDA-MB-435
MDA-MB-231 breast = tested on: MDA-MB-231 breast
HCT-15 colon = tested on: HCT-15 colon
HT29 colon = tested on: HT29 colon
MDA-N = tested on: MDA-N
SN12C renal = tested on: SN12C renal
NCI-H460 lung = tested on: NCI-H460 lung
OVCAR-4 ovarian = tested on: OVCAR-4 ovarian
TK-10 renal = tested on: TK-10 renal
SW-620 colon = tested on: SW-620 colon
IGROV1 ovarian = tested on: IGROV1 ovarian
SNB-75 CNS = tested on: SNB-75 CNS
SK-OV-3 ovarian = tested on: SK-OV-3 ovarian
DU-145 prostate = tested on: DU-145 prostate
MCF7 breast = tested on: MCF7 breast
UO-31 renal = tested on: UO-31 renal
SF-295 CNS = tested on: SF-295 CNS
BT-549 breast = tested on: BT-549 breast
SF-539 CNS = tested on: SF-539 CNS
NCI-H226 lung = tested on: NCI-H226 lung
SK-MEL-2 melanoma = tested on: SK-MEL-2 melanoma
SNB-19 CNS = tested on: SNB-19 CNS
OVCAR-8 ovarian = tested on: OVCAR-8 ovarian
OVCAR-5 ovarian = tested on: OVCAR-5 ovarian
U251 CNS = tested on: U251 CNS
SR leukemia = tested on: SR leukemia
HCT-116 colon = tested on: HCT-116 colon
UACC-257 melanoma = tested on: UACC-257 melanoma
ACHN renal = tested on: ACHN renal
MOLT-4 leukemia = tested on: MOLT-4 leukemia
KM12 colon = tested on: KM12 colon
LOX IMVI melanoma = tested on: LOX IMVI melanoma
OVCAR-3 ovarian = tested on: OVCAR-3 ovarian
MALME-3M melanoma = tested on: MALME-3M melanoma
HL-60(TB) leukemia = tested on: HL-60(TB) leukemia
NCI/ADR-RES ovarian = tested on: NCI/ADR-RES ovarian
M14 melanoma = tested on: M14 melanoma
SF-268 CNS = tested on: SF-268 CNS
T-47D breast = tested on: T-47D breast
786-0 renal = tested on: 786-0 renal
RPMI-8226 leukemia = tested on: RPMI-8226 leukemia
UACC-62 melanoma = tested on: UACC-62 melanoma
HS 578T breast = tested on: HS 578T breast
SK-MEL-5 melanoma = tested on: SK-MEL-5 melanoma
NCI-H23 lung = tested on: NCI-H23 lung
SK-MEL-28 melanoma = tested on: SK-MEL-28 melanoma
EKVX NSCLC = tested on: EKVX NSCLC
NCI-H522 lung = tested on: NCI-H522 lung
K-562 leukemia = tested on: K-562 leukemia
HOP-92 NSCLC = tested on: HOP-92 NSCLC
CAKI-1 renal = tested on: CAKI-1 renal
PC-3 prostate = tested on: PC-3 prostate
HOP-62 NSCLC = tested on: HOP-62 NSCLC
A498 renal = tested on: A498 renal
COLO 205 colon = tested on: COLO 205 colon
HCC-2998 colon = tested on: HCC-2998 colon
RXF 393 renal = tested on: RXF 393 renal
A549 NSCLC = tested on: A549 NSCLC
CCRF-CEM leukemia = tested on: CCRF-CEM leukemia

Measured: TGI

C[C@@]12C[C@@H](c3ccccc3O1)N1CCSC1=N2
not listed: A549 NSCLC | CCRF-CEM leukemia
> 100 µM: all other assays above

CSc1c(C#N)c(O)n(-c2ccc(Cl)cc2)c(=O)c1C#N
98 µM: HOP-92 NSCLC
not listed: SF-295 CNS | ACHN renal | HOP-62 NSCLC | CCRF-CEM leukemia
> 100 µM: all other assays above

Brc1ccc(-c2ccc(-c3ccc(-c4ccc(Br)s4)s3)s2)s1
not listed: SK-MEL-2 melanoma | SNB-19 CNS | MALME-3M melanoma | NCI-H522 lung
> 100 µM: all other assays above

O=C(COC(c1ccc(F)cc1)c1ccc(F)cc1)N1CCN(CCCc2ccccc2)CC1
8.1 µM: RXF 393 renal
59.6 µM: HS 578T breast
13.4 µM: MDA-N
14.5 µM: DU-145 prostate
15.4 µM: SK-MEL-2 melanoma
3.56 µM: UO-31 renal
3.36 µM: COLO 205 colon
14.7 µM: OVCAR-5 ovarian
12.8 µM: NCI/ADR-RES ovarian
10.5 µM: HCT-116 colon
19.4 µM: HOP-62 NSCLC
14.6 µM: OVCAR-8 ovarian
7.91 µM: NCI-H23 lung
16.4 µM: SF-268 CNS
17.3 µM: SF-539 CNS | EKVX NSCLC
8.02 µM: HOP-92 NSCLC
11.3 µM: MDA-MB-231 breast | SN12C renal | UACC-257 melanoma
4.15 µM: CAKI-1 renal
18.6 µM: SR leukemia | NCI-H522 lung
13.7 µM: BT-549 breast | ACHN renal | OVCAR-3 ovarian
6.9 µM: SK-MEL-5 melanoma
17.4 µM: MALME-3M melanoma
11.4 µM: HCT-15 colon
11.9 µM: PC-3 prostate
21.5 µM: SK-OV-3 ovarian
11.2 µM: HT29 colon
16.2 µM: LOX IMVI melanoma | M14 melanoma
26.3 µM: RPMI-8226 leukemia
19 µM: IGROV1 ovarian
15.9 µM: KM12 colon
15.2 µM: A549 NSCLC | SNB-19 CNS
13.5 µM: NCI-H460 lung
13 µM: MDA-MB-435 | SF-295 CNS | HCC-2998 colon
17.8 µM: TK-10 renal
12.6 µM: OVCAR-4 ovarian | MCF7 breast | A498 renal
14.1 µM: HL-60(TB) leukemia | 786-0 renal
9.35 µM: T-47D breast
8.73 µM: NCI-H226 lung
14.8 µM: U251 CNS
16.5 µM: UACC-62 melanoma
not listed: SNB-75 CNS
> 100 µM: all other assays above
